Experimental data published in ChEMBL document CHEMBL1201862, “PubChem BioAssay data set” (2004).
Active and inactive are the calls of the source.

How the values were obtained:
[1] = target: T1, Rac GTPase-activating protein 1 (Homo sapiens, UniProt Q9H0H5); assay: MgcRacGAP GTPase-activating activity inhibitors, confirmation, biochemical, ADP Hunter fluorescence, primary and confirmatory (AID 624330); type: functional
T1 sequence (Q9H0H5 whole entry): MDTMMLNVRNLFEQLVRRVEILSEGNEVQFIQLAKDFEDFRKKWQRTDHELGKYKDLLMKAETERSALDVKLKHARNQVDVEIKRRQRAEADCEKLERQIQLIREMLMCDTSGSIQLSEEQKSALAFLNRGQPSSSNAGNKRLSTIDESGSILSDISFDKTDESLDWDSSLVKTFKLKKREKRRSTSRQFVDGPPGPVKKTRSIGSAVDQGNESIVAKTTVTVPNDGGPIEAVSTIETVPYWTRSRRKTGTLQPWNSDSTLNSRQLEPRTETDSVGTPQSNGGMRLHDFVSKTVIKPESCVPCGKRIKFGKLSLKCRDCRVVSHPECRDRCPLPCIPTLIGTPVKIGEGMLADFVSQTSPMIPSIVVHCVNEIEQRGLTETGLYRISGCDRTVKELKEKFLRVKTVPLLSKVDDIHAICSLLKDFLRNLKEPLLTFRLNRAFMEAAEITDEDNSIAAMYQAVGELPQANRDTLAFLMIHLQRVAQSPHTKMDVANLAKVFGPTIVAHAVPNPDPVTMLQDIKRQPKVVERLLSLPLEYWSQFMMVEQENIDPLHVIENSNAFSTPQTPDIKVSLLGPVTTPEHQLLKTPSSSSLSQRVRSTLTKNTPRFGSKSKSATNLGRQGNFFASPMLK

Cytochrome P450 2C19 = Cytochrome P450 2C19 (Homo sapiens, UniProt P33261); assay: Cytochrome panel assay with activity outcomes. Panel member name: p450-cyp2c19 Compounds with AC50 equal or less than 10 uM are considered active; type: functional; details: read-out: AC50
Cytochrome P450 2C19, sequence (P33261 whole entry): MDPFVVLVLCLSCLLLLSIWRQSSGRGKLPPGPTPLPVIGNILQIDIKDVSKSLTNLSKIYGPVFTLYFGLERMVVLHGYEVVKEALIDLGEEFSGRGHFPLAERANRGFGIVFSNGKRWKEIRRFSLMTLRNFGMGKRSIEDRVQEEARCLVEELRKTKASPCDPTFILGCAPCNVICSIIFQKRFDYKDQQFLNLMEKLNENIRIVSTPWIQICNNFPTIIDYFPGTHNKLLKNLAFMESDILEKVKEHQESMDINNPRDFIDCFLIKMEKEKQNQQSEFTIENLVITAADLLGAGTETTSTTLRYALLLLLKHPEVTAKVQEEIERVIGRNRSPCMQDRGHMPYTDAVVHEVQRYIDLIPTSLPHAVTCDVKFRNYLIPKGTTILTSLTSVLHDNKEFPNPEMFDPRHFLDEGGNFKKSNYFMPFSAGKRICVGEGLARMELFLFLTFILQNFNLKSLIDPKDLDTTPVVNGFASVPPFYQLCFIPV

[2] = inhibitors of intracellular T. cruzi replication, confirmation, NIH3T3 host cells, beta-gal luminescence (AID 2044); type: functional, cell-based;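 also: intracellular parasites grown in NIH/3T3 mouse fibroblasts as host cells; luminescent beta-galactosidase reporter signal from transgenic T. cruzi replicating inside host cells; inhibitors lower the luminescence signal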
[3] = growth suppression of PTEN-null colon cells, dose response, cell-based, HCT116 PTEN knockout (AID 1047); type: functional;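 also: HCT116 colon tumor cells with PTEN knocked out; cells exposed to compound for 60 hours before readout; potency for loss of cell viability measured by luminescence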
[4] = cytotoxicity toward NIH3T3 fibroblasts, dose response, counter-screen, cell-based, ATP luminescence, mouse fibroblasts (AID 2010); type: functional;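 also: cells exposed to compound for about 90 hours before reading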
[5] = growth suppression of beta-catenin-knockout colon cells, dose response, cell-based, HCT116, human colon tumor (AID 1045); type: functional;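 also: HCT116 colon tumor cells with beta catenin knocked out; cells exposed to compound for 60 hours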
[6] = tested on: Streptococcus sp. 'group A'; assay: growth inhibition of control SK(-) GAS strain, dose response, counter-screen for streptokinase expression inhibitor project, luminescence, kanamycin, BacTiterGlo, confirmation (AID 1900); type: functional, organism-based
Streptokinase A = target: T2, Streptokinase A (Streptococcus pyogenes serotype M1, UniProt P10520); assay: S. pyogenes streptokinase expression inhibitors, potency, dose response, plasminogen activation absorbance, OD405 (AID 1914); type: functional, Streptococcus pyogenes M1 GAS;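 also: secreted streptokinase activity via plasminogen activation per viability signal from cell pellet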
T2 sequence (P10520 whole entry): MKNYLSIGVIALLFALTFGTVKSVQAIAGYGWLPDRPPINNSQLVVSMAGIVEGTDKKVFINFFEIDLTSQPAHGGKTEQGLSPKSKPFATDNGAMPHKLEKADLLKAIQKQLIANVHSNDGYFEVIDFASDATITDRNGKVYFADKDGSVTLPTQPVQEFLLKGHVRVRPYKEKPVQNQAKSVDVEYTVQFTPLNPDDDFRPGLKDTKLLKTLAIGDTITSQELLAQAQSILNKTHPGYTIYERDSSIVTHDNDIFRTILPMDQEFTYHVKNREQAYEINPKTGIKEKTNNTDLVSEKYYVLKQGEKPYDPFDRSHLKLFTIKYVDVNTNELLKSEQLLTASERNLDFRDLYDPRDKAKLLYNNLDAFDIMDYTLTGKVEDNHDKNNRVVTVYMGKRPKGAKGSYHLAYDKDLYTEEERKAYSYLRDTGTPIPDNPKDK

Streptococcus = assay: Group A Streptococcus viability loss, dose response, counter-screen for streptokinase expression inhibitor project, luminescence, BacTiterGlo (AID 1915); type: functional, organism-based;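 also: potency for reduction of bacterial viability or growth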
[7] = inhibitors of firefly luciferase expression or activity, dose response, H4 neuroglioma cells, luminescence (AID 1990); type: functional, cell-based
[8] = Luminescence Cell-Based Dose Response HTS to Identify Inhibitors of 5'UTR Stem-Loop Driven Prion Protein mRNA Translation in H4 Neuroglioblastoma Cells. [Related pubchem assays: 1827 (Project Summary), 1813 (Primary HTS)]; type: functional
[9] = inhibitors of SNCA 5'UTR-driven reporter translation, confirmation, H4 neuroglioma cells, luminescence (AID 1988); type: functional, cell-based
[10] = Luminescence Cell-Based Dose Response HTS to Identify Activators of Luciferase Translation or Activity in H4 […] Cells. [Related pubchem assays: 1829 (Project Summary), 1814 (Primary HTS)]; type: functional
H4 = assay: Luminescence Cell-Based Dose Response HTS to Identify Activators of 5'UTR Stem-Loop Driven Prion Protein mRNA Translation in H4 Neuroglioblastoma Cells. [Related pubchem assays: 1829 (Project Summary), 1814 (Primary HTS)]; type: functional; details: Homo sapiens

With C=CCn1c(SCC(=O)Nc2ccc(O)cc2)nc2sc(CC)cc2c1=O the IC50 [1] was 54.5 µM (active).
With CN1CCC(=C2c3ccccc3CCc3sccc32)CC1 the AC50 (Cytochrome P450 2C19) was 3.98 µM (inconclusive).
With Cc1ccc(Oc2cc(N3CCOCC3)nc(-c3ccccc3)n2)cc1 the AC50 (Cytochrome P450 2C19) was 2.24 µM (inconclusive).
In the case of COc1cc(/C=N/NC(=O)c2ccccc2NS(=O)(=O)c2cccs2)ccc1O, the IC50 [1] is reported as 74.5 µM (active).
For CCN1CCN(CC(=O)Nc2cc(C(F)(F)F)ccc2OCCOC)CC1, the IC50 [1] was 48.5 µM (active).
With Cc1cccc(C)c1OCc1nc2ccccc2c(=O)n1/N=C/c1c[nH]c2ccccc12 the EC50 [2] was 1.14 µM (active), the EC50 [3] was 23.6 µM (active) and the EC50 [4] was > 30 µM (not active). The EC50 [5] was 24.7 µM (active).
In the case of NCCS(=O)(=O)NC1CCCCC1, the EC50 [6] is reported as > 150 µM (not active), the EC50 (Streptokinase A) is reported as > 150 µM (not active) and the EC50 (Streptococcus) is reported as > 150 µM (not active).
For CCOc1ccc(-n2c([S-])c(C(=O)Nc3ccc(S(=O)(=O)N4CCOCC4)cc3)[n+]3cc(C(N)=O)ccc23)cc1, the EC50 [7] was 24.1 µM (active), the EC50 [8] was > 120 µM (not active) and the EC50 [9] was 17.5 µM (active).
With Cn1cccc1CNC(=O)Nc1ccc(Cl)c(Cl)c1 the EC50 [10] was 1.66 µM (active) and the EC50 (H4) was > 120 µM (not active).
For CCCn1cnc2cc(NCc3cccs3)ccc21, the EC50 [10] was 11.8 µM (active) and the EC50 (H4) was 13.4 µM (active).
In the case of CCOC(=O)c1c(NC(=O)c2c(N)n(CCCOC)c3nc4ccccc4nc23)sc2c1CCCC2, the EC50 [6] is reported as 4.29 µM (active), the EC50 (Streptokinase A) is reported as > 150 µM (not active) and the EC50 [2] is reported as 2.74 µM (active). The EC50 [4] was > 60 µM (not active) and the EC50 (Streptococcus) was 25.1 µM (active).
With CN(C)c1ccc(N/C=C/C(=O)C(C)(C)C)cc1 the IC50 [1] was 7.98 µM (active).
In the case of O=C(Cc1csc(Nc2[nH]c(=S)nc3ccccc23)n1)NCCCN1CCN(c2cccc(Cl)c2)CC1, the EC50 (Streptokinase A) is reported as > 150 µM (not active).
In the case of CCOC(=O)c1[nH]c2ccccc2c1N=C(S)Nc1cc(C)ccc1C, the IC50 [1] is reported as 77.5 µM (active).
For O=S(=O)(Nc1cc(O)nc(SCc2ccccc2Cl)n1)c1ccccc1, the EC50 [7] was > 120 µM (not active), the EC50 [8] was > 120 µM (not active) and the EC50 [9] was 12.8 µM (active).
For Cc1ccc(CN2CCN(Cc3ccccc3F)CC2)cc1, the IC50 [1] was 76.6 µM (active).
For Cc1cc(-c2nnc(S)n2/N=C/c2ccc(Br)s2)[nH]n1, the IC50 [1] was 91.6 µM (active).
In the case of COc1cccc(-c2nc(NCCNC(C)=O)c3ccccc3n2)c1, the AC50 (Cytochrome P450 2C19) is reported as 15.8 µM (inconclusive).
For CCSc1nnc(-c2cccnc2)n1-c1ccc(C)c(Cl)c1, the EC50 [7] was > 120 µM (not active), the EC50 [8] was > 120 µM (not active) and the EC50 [9] was > 120 µM (not active).
With CN(C)c1ccc(C2C=C(c3ccc(Cl)cc3OC(F)F)Nc3ncnn32)cc1 (configuration not stated) the EC50 [6] was 9.65 µM (active), the EC50 (Streptokinase A) was > 150 µM (not active) and the EC50 (Streptococcus) was 16.4 µM (active).
In the case of CCCS(=O)(=O)N1CCN(CC2CC3C=CC2C3)CC1 (configuration not stated), the IC50 [1] is reported as 205 µM (active).
In the case of CC(C)(C)CC(C)(C)NCC(=O)Nc1c2c(nc3ccccc13)CCC2, the IC50 [1] is reported as 88.7 µM (active).
With O=C(NCCCN1CCCC1=O)c1ccc(CNS(=O)(=O)c2ccc(F)cc2)cc1 the AC50 (Cytochrome P450 2C19) was 39.8 µM (inconclusive).
